Test results from ChEMBL document CHEMBL1201862, “PubChem BioAssay data set” (2004).
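Each compound was tested at five concentrations against cells in 96-well plates for 48 hours. GI50 is the concentration that inhibits growth by half.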 The source made the active and inactive calls. Cut-off read from the data, not from the text of the source: active = GI50 up to about 1.1 µM and inactive = higher.

What was measured:
Test in all cases: NCI tumour cell line growth inhibition, 48 h
786-0 = tested on: 786-0
A498 = tested on: A498
A549 = tested on: A549
ACHN = tested on: ACHN
BT-549 = tested on: BT-549
CAKI-1 = tested on: CAKI-1
CCRF-CEM = tested on: CCRF-CEM
COLO 205 = tested on: COLO 205
DU-145 = tested on: DU-145
EKVX = tested on: EKVX
HCC 2998 = tested on: HCC 2998
HCT-116 = tested on: HCT-116
HCT-15 = tested on: HCT-15
HL-60 = tested on: HL-60
HOP-62 = tested on: HOP-62
HOP-92 = tested on: HOP-92
HT-29 = tested on: HT-29
Hs-578T = tested on: Hs-578T
IGROV-1 = tested on: IGROV-1
K562 = tested on: K562
KM12 = tested on: KM12
LOX IMVI = tested on: LOX IMVI
M14 = tested on: M14
MCF7 = tested on: MCF7
MDA-MB-231 = tested on: MDA-MB-231
MDA-MB-435 = tested on: MDA-MB-435
MDA-N = tested on: MDA-N
MOLT-4 = tested on: MOLT-4
Malme-3M = tested on: Malme-3M
NCI-H226 = tested on: NCI-H226
NCI-H23 = tested on: NCI-H23
NCI-H460 = tested on: NCI-H460
NCI-H522 = tested on: NCI-H522
NCI/ADR-RES = tested on: NCI/ADR-RES
OVCAR-3 = tested on: OVCAR-3
OVCAR-4 = tested on: OVCAR-4
OVCAR-5 = tested on: OVCAR-5
OVCAR-8 = tested on: OVCAR-8
PC-3 = tested on: PC-3
RPMI-8226 = tested on: RPMI-8226
RXF 393 = tested on: RXF 393
SF-268 = tested on: SF-268
SF-295 = tested on: SF-295
SF-539 = tested on: SF-539
SK-MEL-28 = tested on: SK-MEL-28
SK-MEL-2 = tested on: SK-MEL-2
SK-MEL-5 = tested on: SK-MEL-5
SK-OV-3 = tested on: SK-OV-3
SN12C = tested on: SN12C
SNB-19 = tested on: SNB-19
SNB-75 = tested on: SNB-75
SR = tested on: SR
SW-620 = tested on: SW-620
T47D = tested on: T47D
TK-10 = tested on: TK-10
U-251 = tested on: U-251
UACC-257 = tested on: UACC-257
UACC-62 = tested on: UACC-62
UO-31 = tested on: UO-31

In the case of `Cn1c(=O)sc2cc(C(=S)N3CCOCC3)ccc21`, the GI50 (786-0) was > 100 µM (inactive), the GI50 (A498) was > 100 µM (inactive) and the GI50 (A549) was > 100 µM (inactive). The GI50 (ACHN) was > 100 µM (inactive), the GI50 (BT-549) was > 100 µM (inactive) and the GI50 (CAKI-1) was > 100 µM (inactive). The GI50 (CCRF-CEM) was 28.6 µM (inactive), the GI50 (COLO 205) was > 80.7 µM (inactive) and the GI50 (DU-145) was > 100 µM (inactive). For the same compound, the GI50 (EKVX) was > 28.8 µM (inactive), the GI50 (HCC 2998) was > 100 µM (inactive) and the GI50 (HCT-116) was > 100 µM (inactive). The GI50 (HCT-15) was greater than 92.3 µM, the GI50 (HL-60) was 24.7 µM (inactive) and the GI50 (HOP-62) was > 100 µM (inactive). For the same compound, the GI50 (HOP-92) was 9.89 µM (inactive), the GI50 (HT-29) was > 79.3 µM (inactive) and the GI50 (Hs-578T) was > 41 µM (inactive). The GI50 (IGROV-1) was > 51.5 µM (inactive), the GI50 (K562) was 41.2 µM (inactive) and the GI50 (KM12) was > 100 µM (inactive). For the same compound, the GI50 (LOX IMVI) was > 85.7 µM (inactive), the GI50 (M14) was > 100 µM (inactive) and the GI50 (MCF7) was > 100 µM (inactive). For the same compound, the GI50 (MDA-MB-231) was > 100 µM (inactive), the GI50 (MDA-MB-435) was > 100 µM (inactive) and the GI50 (MDA-N) was > 100 µM (inactive). For the same compound, the GI50 (MOLT-4) was 39.9 µM (inactive), the GI50 (Malme-3M) was 3.48 µM (inactive) and the GI50 (NCI-H226) was > 46.9 µM (inactive). The GI50 (NCI-H23) was > 100 µM (inactive), the GI50 (NCI-H460) was > 100 µM (inactive) and the GI50 (NCI-H522) was 87.3 µM (inactive). For the same compound, the GI50 (NCI/ADR-RES) was > 73.1 µM (inactive), the GI50 (OVCAR-3) was > 100 µM (inactive) and the GI50 (OVCAR-4) was > 100 µM (inactive). The GI50 (OVCAR-5) was > 100 µM (inactive), the GI50 (OVCAR-8) was > 47.1 µM (inactive) and the GI50 (PC-3) was > 100 µM (inactive). For the same compound, the GI50 (RPMI-8226) was > 79.8 µM (inactive), the GI50 (RXF 393) was > 100 µM (inactive) and the GI50 (SF-268) was > 100 µM (inactive). For the same compound, the GI50 (SF-295) was > 100 µM (inactive), the GI50 (SF-539) was > 100 µM (inactive) and the GI50 (SK-MEL-28) was > 100 µM (inactive). For the same compound, the GI50 (SK-MEL-2) was > 100 µM (inactive), the GI50 (SK-MEL-5) was > 100 µM (inactive) and the GI50 (SK-OV-3) was > 100 µM (inactive). For the same compound, the GI50 (SN12C) was > 100 µM (inactive), the GI50 (SNB-19) was > 100 µM (inactive) and the GI50 (SNB-75) was > 34 µM (inactive). For the same compound, the GI50 (SR) was 69.7 µM (inactive), the GI50 (SW-620) was > 100 µM (inactive) and the GI50 (T47D) was > 100 µM (inactive). For the same compound, the GI50 (TK-10) was > 100 µM (inactive), the GI50 (U-251) was > 59.7 µM (inactive) and the GI50 (UACC-257) was > 100 µM (inactive). For the same compound, the GI50 (UACC-62) was > 100 µM (inactive) and the GI50 (UO-31) was 60 µM (inactive).

For `O=C1C(Cl)C(c2cc3cc(Br)ccc3nc2Cl)N1c1c(Cl)cccc1Cl` (configuration not stated), the GI50 (786-0) was 12.4 µM (inactive), the GI50 (A498) was > 25 µM (inactive) and the GI50 (A549) was > 25 µM (inactive). The GI50 (ACHN) was 15.9 µM (inactive), the GI50 (BT-549) was 10.2 µM (inactive) and the GI50 (CAKI-1) was 8.65 µM (inactive). The GI50 (CCRF-CEM) was 7.53 µM (inactive), the GI50 (COLO 205) was > 25 µM (inactive) and the GI50 (DU-145) was > 25 µM (inactive). The GI50 (EKVX) was 6.32 µM (inactive), the GI50 (HCC 2998) was 23.8 µM (inactive) and the GI50 (HCT-116) was 9.12 µM (inactive). For the same compound, the GI50 (HCT-15) was 13.4 µM, the GI50 (HL-60) was 8.24 µM (inactive) and the GI50 (HOP-62) was > 25 µM (inactive). For the same compound, the GI50 (HOP-92) was 9.79 µM (inactive), the GI50 (HT-29) was > 25 µM (inactive) and the GI50 (Hs-578T) was > 25 µM (inactive). For the same compound, the GI50 (IGROV-1) was 6.9 µM (inactive), the GI50 (K562) was 7.01 µM (inactive) and the GI50 (KM12) was > 25 µM (inactive). For the same compound, the GI50 (LOX IMVI) was 3.66 µM (inactive), the GI50 (M14) was 22.1 µM (inactive) and the GI50 (MCF7) was 6.76 µM (inactive). The GI50 (MDA-MB-231) was 19.3 µM (inactive), the GI50 (MDA-MB-435) was 8.67 µM (inactive) and the GI50 (MDA-N) was 9.68 µM (inactive). The GI50 (MOLT-4) was 4.9 µM (inactive), the GI50 (Malme-3M) was > 25 µM (inactive) and the GI50 (NCI-H226) was 15.8 µM (inactive). The GI50 (NCI-H23) was 20.4 µM (inactive), the GI50 (NCI-H460) was > 25 µM (inactive) and the GI50 (NCI-H522) was 5.37 µM (inactive). The GI50 (NCI/ADR-RES) was 12.3 µM (inactive), the GI50 (OVCAR-3) was 18.2 µM (inactive) and the GI50 (OVCAR-4) was 5.46 µM (inactive). For the same compound, the GI50 (OVCAR-5) was > 25 µM (inactive), the GI50 (OVCAR-8) was 10.8 µM (inactive) and the GI50 (PC-3) was 20 µM (inactive). The GI50 (RPMI-8226) was 6.78 µM (inactive), the GI50 (RXF 393) was 9.91 µM (inactive) and the GI50 (SF-268) was 11.7 µM (inactive). The GI50 (SF-295) was > 25 µM (inactive), the GI50 (SF-539) was 5.27 µM (inactive) and the GI50 (SK-MEL-28) was > 25 µM (inactive). For the same compound, the GI50 (SK-MEL-2) was > 25 µM (inactive), the GI50 (SK-MEL-5) was 12.5 µM (inactive) and the GI50 (SK-OV-3) was > 25 µM (inactive). The GI50 (SN12C) was 16.6 µM (inactive), the GI50 (SNB-19) was > 25 µM (inactive) and the GI50 (SNB-75) was > 25 µM (inactive). The GI50 (SR) was 4.78 µM (inactive), the GI50 (SW-620) was 11.6 µM (inactive) and the GI50 (T47D) was 11.6 µM (inactive). The GI50 (TK-10) was > 25 µM (inactive), the GI50 (UACC-257) was 16.5 µM (inactive) and the GI50 (UACC-62) was 17.4 µM (inactive). The GI50 (UO-31) was 1.3 µM (inactive).
